In one data set the test system is EOL-1 cells. In words: cells. Conditions: for pIC50: read-out: Viability (IC50) EOL-1; for effect on viability of EOL-1 cells, presence of cytokines: 1 μM (U0126 10 μM), FIGS. 2, 4, 6, GM-CSF and IL-3 10 ng/mL each. The method, then:
(§1) Given that mutant Flt3 activates cyclin D/CDK4 signaling, the effect of the CDK4 inhibitor arcyriaflavin on the viability of MV4-11 cells was tested. As a control in this experiment, an inhibitor for cyclin A/CDK2 and cyclin E/CDK2 (purvalanol) as well as an inhibitor for cyclin B/CDK1 (alsterpaullone) was included. […] The inhibitors were also tested against EOL-1 cells, which express the mutant fusion kinase FiplL1-PDGFROα and against K562 and BV173 cells (CML cell lines) and THP-1 and U937 cells (AML cell lines). The dilution range of the inhibitors was from 20 μM to 10 nM.
(§2) Viability of the cell lines was determined by an MTT assay, which is based on the reduction of the tetrazolium salt 3, [4,5-dimethylthiazol-2-yl]-2,5-diphenyltetrazolium bromide (MTT). Mitochondrial enzymes associated with metabolic activity reduce MTT to a formazan dye, which can be measured spectrometrically. Cells undergoing apoptosis show reduced metabolic activity resulting in reduced formation of the formazan dye.
(§3) The bone marrow environment is known to contain a multitude of cytokines. […] The cell lines were incubated with the appropriate inhibitor in the presence and absence of the cytokines GM-CSF and IL-3 (10 ng/mL each).
(§4) To test the role of MEK in the survival of MV4-11 and EOL-1 cells, a viability assay (48 hour incubation) was performed using U0126 (10 μM), an MEK specific inhibitor (see FIG. 5).

The test system of another data set is MV4-11 cells. In words: cells. Conditions: for pIC50: read-out: Viability (IC50) MV4-11. The method, then: as §1, §2, §3, §4
In another data set the test system is THP-1 cells. In words: cells. Conditions: for effect on viability of THP-1 cells: 48 hours, arcyriaflavin 1 μM, U0126 10 μM, FIGS. 4-6, absence and presence of cytokines; for pIC50: read-out: Viability (IC50) THP-1. The method, then: as §1, §2, §3, §4
In a further data set the test system is K562 cells. Nature of the data set: MTT viability assay, K562 cells. Type of data set: cell-based. The method, then:
as §1, §2
(Tetrazolium dyes change colour on reduction, which living cells bring about.)

The test system of the next data set is BV173 cells. Nature of the data set: MTT viability assay, BV173 cells. The format is cell-based. The method, then: as §1, §2
A further data set deals with U937 cells. Nature of the data set: MTT viability assay, U937 cells. The format is cell-based. The method, then: as §1, §2
Where [1] appears, read: 48 hours, arcyriaflavin 1 μM, U0126 10 μM, FIGS. 5, 6, absence and presence of cytokines.
[2] abbreviates: exposed to inhibitor for 72 hours.
Setting [3] is: exposed to inhibitor for 72 hours, MTT.

pIC50: −log10 of the molar value. Read-outs that look alike come from different tables or passages of the source.

The results in this text go back to patent US20050171182A1, “Methods and compositions for use in the treatment of mutant receptor tyrosine kinase driven cellular proliferative diseases” (priority 2003, published 2005).

The term viability denotes a read-out of living cells in per cent, often relative to untreated cells. Broadly, the pIC50 is −log10 of the IC50, conventionally taken in molar units.

In the case of `N#CC(=C(/N)Sc1ccccc1N)/C(C#N)=C(\N)Sc1ccccc1N` [U0126, 1,4-diamino-2,3-dicyano-1,4-bis[2-aminophenylthio]butadiene], in the data set with EOL-1 cells (setting [1]), the “effect on survival/viability of EOL-1 cells, overall” value is “slightly alters”. Also, the viability at 10 µM in the data set with EOL-1 cells (Homo sapiens, EOL1, 48 h, read-out: Viability (%) EOL-1 cell line, Cytokines Absent) was 80%; with MV4-11 cells (Homo sapiens, MV4-11, 48 h, read-out: Viability (%) MV4-11 cell line, Cytokines Absent) it was 103%; in the data set with THP-1 cells (Homo sapiens, THP-1, 48 h, read-out: Viability (%) THP-1 cell line, Cytokines Absent) it was 79%. For the same compound, the “Viability (%) EOL-1 cell line, GM-CSF/IL-3 (10 ng/mL each)” value in the data set on EOL-1 cells (human, 48 h, 10 μM) stood at 103%. Besides, the “effect on survival/viability of MV4-11 cells, overall” value with MV4-11 cells (setting [1]) is on record as “slightly alters”. For the same compound, the “Viability (%) MV4-11 cell line, GM-CSF/IL-3 (10 ng/mL each)” value in the data set with MV4-11 cells (human, 48 h, 10 μM) is given as 90%. Moreover, the “effect on viability of THP-1 cells” value in the data set on THP-1 cells is given as “slightly alters”. Further, in the data set on THP-1 cells (human, 48 h, 10 μM), the “Viability (%) THP-1 cell line, GM-CSF/IL-3 (10 ng/mL each)” value is 97%.
Take `O=C1Cc2c([nH]c3ccc([N+](=O)[O-])cc23)-c2ccccc2N1` [alsterpaullone]: the negative-log IC50 (pIC50) is less than 5.00 with K562 cells (Homo sapiens, K562, exposed to inhibitor for 72 hours); 6.00 in the data set with BV173 cells (Homo sapiens, BV-173, exposed to inhibitor for 72 hours); 6.00 in the data set on EOL-1 cells (Homo sapiens, EOL1, 72 h); 6.00 in the data set on MV4-11 cells (Homo sapiens, MV4-11, 72 h); 6.00 in the data set with THP-1 cells (Homo sapiens, THP-1, 72 h); 6.22 in the data set on U937 cells (Homo sapiens, U-937, exposed to inhibitor for 72 hours).
For the compound `CS(=O)(=O)O.Cc1ccc(NC(=O)c2ccc(CN3CCN(C)CC3)cc2)cc1Nc1nccc(-c2cccnc2)n1` [imatinib], the “effect on viability of EOL-1 cells, presence of cytokines” value in the data set on EOL-1 cells (48 hours) is listed as “much less affected”. The “effect on viability of EOL-1 cells, absence of cytokines” value in the data set on EOL-1 cells (48 hours, 1 μM, FIGS. 2, 4, cytokines absent) was “strongly reduce”.
For purvalanol, the pIC50 in the data set on K562 cells (setting [2]) is less than 5.00; in the data set with BV173 cells (setting [2]), less than 5.00; in the data set with EOL-1 cells (setting [3]), less than 5.00; in the data set with MV4-11 cells (setting [3]), 5.52; with THP-1 cells (setting [3]), less than 5.00; with U937 cells (setting [2]), less than 5.00.
`O=C1NC(=O)c2c1c1c3ccccc3[nH]c1c1[nH]c3ccccc3c21` [arcyriaflavin, arcyriaflavin A]: the pIC50 in the data set on K562 cells (setting [2]) is less than 5.00; in the data set on BV173 cells (setting [2]), less than 5.00; in the data set with EOL-1 cells (setting [3]), 6.70; in the data set with MV4-11 cells (setting [3]) it was 6.30; in the data set with THP-1 cells (setting [3]) it was less than 5.00; with U937 cells (setting [2]), less than 5.00. The “Viability (%) EOL-1 cell line, GM-CSF/IL-3 (10 ng/mL each)” value in the data set on EOL-1 cells came to 60%. Further, in the data set on EOL-1 cells (48 hours), the “effect on viability of EOL-1 cells, presence of cytokines” value was “much reduced”. For the same compound, the “Viability (%) MV4-11 cell line, GM-CSF/IL-3 (10 ng/mL each)” value in the data set on MV4-11 cells stood at 52%. In addition, the “effect on viability of MV4-11 cells, presence of cytokines” value in the data set on MV4-11 cells (48 hours, 1 μM (U0126 10 μM), FIGS. 3, 4, 6, GM-CSF and IL-3 10 ng/mL each) was “much reduced”. For the same compound, the “Viability (%) THP-1 cell line, GM-CSF/IL-3 (10 ng/mL each)” value in the data set on THP-1 cells turned out to be 96%. In the data set with THP-1 cells, the “effect on viability of THP-1 cells” value was “not affected”.
